According to the NIST ThermoML archive (doi:10.1021/je034180e):

Settings: Liquid

CCCCCCC(=O)O [heptanoic acid]
Settings	vapor or sublimation pressure [kPa]
413.48 K	4.7
426.48 K	8.63
435.07 K	12.56
441.33 K	16.57
446.4 K	20.63
451 K	24.65
453.8 K	27.67

CCCC(=O)O [butanoic acid]
Settings	vapor or sublimation pressure [kPa]
383.55 K	14.56
390.87 K	19.58
401.32 K	29.65
409 K	39.72
415 K	49.79
420.22 K	59.86
424.81 K	69.92
428.96 K	79.99
432.61 K	90.07
434.51 K	95.1
436.05 K	100.04

CCCCC(=O)O [pentanoic acid]
Settings	vapor or sublimation pressure [kPa]
403.15 K	14.56
410.71 K	19.59
417.07 K	24.63
422.19 K	29.65
430.08 K	39.72
436.48 K	49.78
441.89 K	59.85
446.45 K	69.92
448.48 K	74.96
450.35 K	79.99
451.92 K	85.03

CCC(=O)O [propanoic acid]
Settings	vapor or sublimation pressure [kPa]
361.52 K	14.56
368.37 K	19.58
378.95 K	29.65
386.74 K	39.73
392.93 K	49.79
398.09 K	59.86
402.65 K	69.92
406.8 K	79.99
410.33 K	90.07
411.97 K	95.1
413.74 K	101.21

CC(C)C(=O)O [2-methylpropanoic acid]
Settings	vapor or sublimation pressure [kPa]
375.21 K	14.55
382.14 K	19.58
391.77 K	29.65
399.43 K	39.72
405.44 K	49.79
410.75 K	59.85
415.51 K	69.92
419.77 K	79.99
423.36 K	90.07
424.86 K	95.1
426.16 K	100.59

CCCCCC(=O)O [hexanoic acid]
Settings	vapor or sublimation pressure [kPa]
413.4 K	9.52
422.88 K	14.56
429.92 K	19.59
435.62 K	24.63
440.03 K	29.64
444.26 K	34.68
447.88 K	39.72
451.43 K	44.75

CC(C)CC(=O)O [3-methylbutanoic acid]
Settings	vapor or sublimation pressure [kPa]
396.05 K	14.56
402.9 K	19.59
412.87 K	29.65
420.7 K	39.72
427.18 K	49.78
432.62 K	59.86
437.44 K	69.92
441.6 K	79.99
445.16 K	90.07
446.6 K	95.1
447.92 K	100.08
